Earlier results, collected in patent US20230066947A1, “Method for the augmentation of substance abuse therapies using cannabinoid formulations” (priority 2021, published 2023).
Where two headings read alike, the source gives them in different places.

Columns and labels:
COX-2 = biological target: T1, COX-2 (Homo sapiens, UniProt P35354); conditions: compared with common NSAIDS
T1 sequence (P35354 18-604): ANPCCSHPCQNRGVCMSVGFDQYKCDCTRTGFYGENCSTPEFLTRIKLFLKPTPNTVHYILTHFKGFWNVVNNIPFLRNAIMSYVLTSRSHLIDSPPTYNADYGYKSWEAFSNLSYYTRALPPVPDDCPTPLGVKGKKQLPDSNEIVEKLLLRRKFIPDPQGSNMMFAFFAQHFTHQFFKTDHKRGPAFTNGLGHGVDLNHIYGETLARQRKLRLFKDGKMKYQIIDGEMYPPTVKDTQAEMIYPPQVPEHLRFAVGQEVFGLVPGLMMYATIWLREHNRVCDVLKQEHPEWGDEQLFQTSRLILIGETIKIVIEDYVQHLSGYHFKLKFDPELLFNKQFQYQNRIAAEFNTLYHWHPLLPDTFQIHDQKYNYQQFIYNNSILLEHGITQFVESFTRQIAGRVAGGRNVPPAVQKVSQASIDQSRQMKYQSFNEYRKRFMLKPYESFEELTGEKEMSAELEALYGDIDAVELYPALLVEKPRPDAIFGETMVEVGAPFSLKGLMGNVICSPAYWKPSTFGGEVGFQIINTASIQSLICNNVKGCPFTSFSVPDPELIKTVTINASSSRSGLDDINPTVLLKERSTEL

[1] = test system: specific serotonin receptor linked to anti-nausea and anti-anxiety effects

C=C(C)[C@@H]1CCC(C)=C[C@H]1c1c(O)cc(CCCCC)c(C(=O)O)c1O [CBDA]
COX-2 inhibitor behavior (COX-2): same COX-2 inhibitor behavior | bioavailability (intraperitoneal administration): 80% | bioavailability (orally ingested): approximately 20% | affinity to bind to a specific serotonin receptor [1]: far greater affinity
